SMILES strings stand for the structures. Structures can show the parent of a compound that is named as a salt. A value given as a limit tells only on which side of the number the result lay.

Details of data set [1]: species or system LEW rats. To be noted: rat, in vivo, ip. The procedure: Serum bilirubin levels and BVR expression in the graft. To assess how fast injected biliverdin (BV) is metabolized into bilirubin, sequential serum bilirubin levels were analyzed. Before BV treatment, serum bilirubin levels were undetectable. Thirty minutes after BV injection i.p., serum bilirubin levels reached a peak of 1.07±0.5 mg/dl compared to those of normal animals. By 2 hours after injection i.p., bilirubin levels returned to normal.

Another data set deals with IL-2. The data set can be described thus: IL-2 assay (ELISA of culture supernatant). The class given is cell-based, mouse. To be noted: anti-CD3 mAb stimulation, biliverdin 50 or 100 μM. How it is done:
IL-2 assay. B6AF1 leukocytes (2.5×10^5 cells/well) were stimulated by anti-CD3 mAb (1 μg/ml), and cultured in 96 well round bottom plates with or without biliverdin (50 or 100 μM). Forty-eight hours later, culture supernatant (100 μl) was collected and stored at −80° C. until use. All cultures were performed in triplicates. IL-2 levels in the supernatants were measured by enzyme-linked immunosorbent assays (ELISA) using an IL-2 assay kit (Quantikine® M, R&D Systems, Inc), following kit instructions. Measurements of each supernatant sample for IL-2 were performed in duplicate. The experiment was repeated 4 times.

A further data set concerns TNF-α. In words: Real time RT-PCR of graft muscularis after SITx, TNF-α. The class given is in vivo, LEW rats. To be noted: BV treatment, 4 hours. The procedure: (§1) Small Intestinal Transplantation. Orthotopic small intestinal transplantation (SITx) was performed in syngeneic Lewis rats. SITx with caval drainage was performed using a previously described procedure (Murase et al., in Handbook of Animal Models in Transplantation Research, Cramer et al., Eds. CRC Press, Boca Raton, Fla., pp. 203-213 (1994)). […] The graft was perfused via the aortic segment with 5 ml chilled Ringer's lactate solution, and the intestinal lumen was irrigated with 20 ml of cold saline solution containing 0.5% neomycin-sulfate (Sigma, St. Louis, Mo.). […]
(§2) SYBR green real time RT-PCR. The effects of administration of biliverdin on transplant-induced pro-inflammatory and anti-inflammatory gene expression were assessed in muscularis extracts by RT-PCR Biliverdin ([…], i.p.) was administered to both the donor and recipient three hours preoperatively. […] Equal aliquots (5 μg) of total RNA from each sample were quantified by spectrophotometry (wavelength […]) and aliquoted at a concentration of 40 ng/μl. Peak mRNA expression was quantified in duplicate by SYBR Green two-step, real-time RT-PCR. […] Real-time PCR data were plotted as the ΔRn fluorescence signal versus the cycle number. […] Quantification of mRNA expression was normalized to GAPDH and calculated relative to control using the comparative CT method (Schmittgen et al., J. Biochem. Biophys. Methods 46(1-2):69-8, 2000). […]

For the next data set, the system named is IL-10. In words: Real time RT-PCR of graft muscularis after SITx, IL-10. The note with it: BV treatment, 4 hours. The class given is in vivo, LEW rats. The procedure: as §1, §2
Data set [2] has as its system LPS-induced lung inflammation. In words: Endotoxic shock (LPS) model, bronchoalveolar lavage. The class given is in vivo, Sprague-Dawley rats. The note with it: BAL 24 hours after LPS. How it is done: Treatment Protocol. Endotoxin (lipopolysaccharide/LPS; Sigma; E. coli serotype 0128:B7; 3 mg/kg, i.v.) was administered to male Sprague-Dawley, resulting in an acute non-lethal inflammation. In rats, a sublethal dose of LPS results in a moderate lung inflammation characterized by neutrophil accumulation and protein accumulation in the airspace, both markers of lung inflammation. The pro-inflammatory cytokine TNF-alpha increases very rapidly in the serum, peaking by 60-90 minutes. This is followed by increases in IL-10, a prototypical anti-inflammatory cytokine that peaks 8-12 hr later.
Administration of Biliverdin. Biliverdin (Frontier Scientific: prepared in PBS following solubilization in NaOH) was administered i.p. at […] 17 hours prior to, one hour prior to, and eight hours after LPS administration.
Bronchoalveolar Lavage. A bronchoalveolar lavage (BAL) was performed 24 hours after LPS administration. Serum cytokines were measured using commercially available ELISA kits (R&D Systems Inc.) per the manufacturer's instructions. Total protein was determined via a standard Bradford assay based on a standard curve. […] Total cell count was determined as well as differential analysis of cell type and morphology via Diff-Quik® Fixative (American Scientific Products) staining of a sample of the lavagate.

`C=CC1=C(C)/C(=C/C2=NC(=C\c3[nH]c(/C=C4\NC(=O)C(C)=C4C=C)c(C)c3CCC(=O)O)/C(CCC(=O)O)=C2C)NC1=O` [biliverdin, biliverdin dihydrochloride]: in data set [1] (LEW), the “peak serum bilirubin level” value was 1.07 ± 0.5 mg/dL and the “time for bilirubin levels to return to normal” value was ≤ 2 h. Further, the “time to peak serum bilirubin” value in data set [1] is on record as “Thirty”. In addition, in the data set with IL-2, the “IL-2 production by splenocytes” value is “significantly suppressed in a dose-dependent manner”. Moreover, the “upregulation of TNF-α mRNA caused by transplantation” value with TNF-α was “did not significantly change”. Also, the “upregulation of IL-10 mRNA caused by transplantation” value in the data set with IL-10 is “did not significantly change”. Further, in data set [2], the “neutrophil accumulation in the airspace” value was “reduced” and the “protein accumulation in the airspace” value is “reduced”.

The record behind these values is patent publication US8097585B2, “Methods of treating inflammation by administration of heme oxygenase-1 and products of heme degradation” (priority 2002, dated 2012).
